Laboratory results published in patent US20070117814A1, “Fungicidal mixtures” (Basf Aktiengesellschaft, priority 2003, published 2007).

System: Plasmopara viticola
Test: activity against peronospora of grapevines caused by Plasmopara viticola (protective spray treatment of potted vines)
Format: in vivo, Plasmopara viticola on grapevines
Conditions: individual active compound, Abbot's formula, untreated control 92% infection
Procedure: The active compounds, separately or jointly, were prepared as a stock solution comprising 0.25% by weight of active compound in acetone or DMSO. 1% by weight of the emulsifier Uniperol® EL (wetting agent having emulsifying and dispersant action based on ethoxylated alkylphenols) was added to this solution, and the mixture was diluted with water to the desired concentration.
Use example—activity against peronospora of gravevines caused by Plasmopara viticola
Leaves of potted vines were sprayed to runoff point with an aqueous suspension having the concentration of active compound stated below. The next day, the undersides of the leaves were inoculated with an aqueous sproangal suspension of Plasmopara viticola. The grapevines were then initially placed in a water-vapor-saturated chamber at 24° C. for 48 hours and then in a greenhouse at 20-30° C. for 5 days. After this period of time, the plants were again placed in a humid chamber for 16 hours to promote sporangiophore eruption. The extent of the development of the disease on the undersides of the leaves was then determined visually.
The visually determined percentages of infected leaf areas were converted into efficacies in % of the untreated control:
The efficacy (E) is calculated as follows using Abbot's formula: E=(1−α/β)·100 • α corresponds to the fungicidal infection of the treated plants in % and • β corresponds to the fungicidal infection of the untreated (control) plants in %
An efficacy of 0 means that the infection level of the treated plants corresponds to that of the untreated control plants; an efficacy of 100 means that the treated plants were not infected.
The expected efficacies of mixtures of active compounds were determined using Colby's formula (Colby, S. R. “Calculating synergistic and antagonistic responses of herbicide combinations”, Weeds, 15, 20-22, 1967) and compared with the observed efficacies.
Colby's formula: E=x+y−x·y/100 • E expected efficacy, expressed in % of the untreated control, when using the mixture of the active compounds A and B at the concentrations a and b • x efficacy, expressed in % of the untreated control, when using the active compound A at the concentration a
y efficacy, expressed in % of the untreated control, when using the active compound B at the concentration b

Row | Compound | Efficacy in % of the untreated control (4 ppm in the spray liquor) [%] | Efficacy in % of the untreated control (16 ppm in the spray liquor) [%] | Efficacy in % of the untreated control (63 ppm in the spray liquor) [%]
1 | 2,6-dinitro-4-octylphenyl crotonate und 2,4-dinitro-6-octylphenyl crotonate [II] | 2 | 2 | 2
2 | CC1CCN(c2c(-c3c(F)cc(F)cc3F)c(Cl)nc3ncnn23)CC1 [I, 5-chloro-7-(4-methylpiperidin-1-yl)-6-(2,4,6-trifluorophenyl)-[1,2,4]triazolo[1,5-a]pyrimidine] |  | 56 | 
